# Test system: HBV
# Experiment: HBV inhibition assay in HepG2.2.15 cells (qPCR of extracellular HBV DNA)
# Type: cell-based, Hepatitis B virus
# Conditions: Hepatitis B virus, HepG2.2.15, 120 h, extracellular HBV DNA by qPCR, five days after compound treatment
# Excerpt: HepG2.2.15 is a stably-transfected cell line containing the HBV genome. It is derived from the hepatoblastoma cell line Hep G2 (American Type Culture Collection, ATCC® HB-8065™) by the published procedures described in reference: MA Selles et al. Proc. Natl. Acad. Sci. USA 1987, 84, 1005-1009. The cell line was maintained in Dulbecco's modified Eagle's medium and nutrient mixture F-12 (DMEM/F-12, Gibco, Cat.#: 11320-033) supplemented with 10% fetal bovine serum (Gibco, Cat.#:10099-141), 100 U/mL penicillin, 100 μg/mL streptomycin (Gibco, Cat.#:15140-122), and 0.3 mg/mL of G418 Sulfate (Gibco, Cat.#: 10131-027).
# HepG2.2.15 cells were seeded into 96-well plates at a density of 3×10^4 cells per well in culture media of 100 μL DMEM/F-12 supplemented with 2.5% fetal bovine serum, 100 U/mL penicillin, 100 μg/mL streptomycin and cultured overnight at 37° C. The test compounds were serially half-log diluted in DMSO, then diluted 100 times in culture media. 100 μL culture media containing diluted compounds were added into the plates to reach 0.5% final concentration of DMSO in every well. Five days after compound treatment, culture supernatant was collected for further analysis.
# For quantitative PCR detection of extracellular HBV DNA, culture supernatant was processed by 500 μg/mL Proteinase K (Sigma, Cat.#:P2308) digestion at 50° C. for 1 hour. After heat inactivation of the enzyme at 95° C. for 15 minutes, the samples were subjected to HBV DNA quantification by qPCR. The effective compound concentration at which HBV replication was inhibited by 50% (EC50) was determined.
row,Structure (SMILES),EC50
1,"C[C@H]1Cn2ncc(N3CC(N4CCC[C@H]4C(=O)O)CC3=O)c2CN1C(=O)Nc1cc(F)c(F)c(F)c1 (stereo partly drawn) [Example 1, (2S)-1-[1-[(6S)-6-methyl-5-[(3,4,5-trifluorophenyl)carbamoyl]-6,7-dihydro-4H-pyrazolo[1,5-a]pyrazin-3-yl]-5-oxo-pyrrolidin-3-yl]pyrrolidine-2-carboxylic acid]",126 nM
2,"C[C@H]1Cn2ncc(N3C(=O)CC(N4CCC[C@H]4C(=O)O)[C@@H]3C)c2CN1C(=O)Nc1cc(F)c(F)c(F)c1 (stereo partly drawn) [Example 2, (2S)-1-[(2S)-2-methyl-1-[(6S)-6-methyl-5-[(3,4,5-trifluorophenyl)carbamoyl]-6,7-dihydro-4H-pyrazolo[1,5-a]pyrazin-3-yl]-5-oxo-pyrrolidin-3-yl]pyrrolidine-2-carboxylic acid]",98 nM
3,"C[C@H]1Cn2ncc(N3CC(N(C)CC(=O)O)CC3=O)c2CN1C(=O)Nc1cc(F)c(F)c(F)c1 (stereo partly drawn) [Example 3, 2-[Methyl-[1-[(6S)-6-methyl-5-[(3,4,5-trifluorophenyl)carbamoyl]-6,7-dihydro-4H-pyrazolo[1,5-a]pyrazin-3-yl]-5-oxo-pyrrolidin-3-yl]amino]acetic acid]",139 nM
4,"C[C@H]1Cn2ncc(N3C(=O)CC(N4CCC[C@@H]4C(=O)O)[C@@H]3C)c2CN1C(=O)Nc1cc(F)c(F)c(F)c1 (stereo partly drawn) [Example 4, (2R)-1-[(2S)-2-methyl-1-[(6S)-6-methyl-5-[(3,4,5-trifluorophenyl)carbamoyl]-6,7-dihydro-4H-pyrazolo[1,5-a]pyrazin-3-yl]-5-oxo-pyrrolidin-3-yl]pyrrolidine-2-carboxylic acid]",105 nM
5,"C[C@H]1Cn2ncc(N3CC(N4CCC(C(=O)O)C4)CC3=O)c2CN1C(=O)Nc1cc(F)c(F)c(F)c1 (stereo partly drawn) [Example 5, 1-[1-[(6S)-6-methyl-5-[(3,4,5-trifluorophenyl)carbamoyl]-6,7-dihydro-4H-pyrazolo[1,5-a]pyrazin-3-yl]-5-oxo-pyrrolidin-3-yl]pyrrolidine-3-carboxylic acid]",240 nM
6,"C[C@H]1[C@H](C)n2ncc(N3CC(N4CCC[C@H]4C(=O)O)CC3=O)c2CN1C(=O)Nc1cc(F)c(F)c(F)c1 (stereo partly drawn) [Example 6-1, (2S)-1-[1-[(6S,7S)-6,7-dimethyl-5-[(3,4,5-trifluorophenyl)carbamoyl]-6,7-dihydro-4H-pyrazolo[1,5-a]pyrazin-3-yl]-5-oxo-pyrrolidin-3-yl]pyrrolidine-2-carboxylic acid]",112 nM
7,"C[C@H]1Cn2ncc(N3CC(c4ccccc4C(=O)O)CC3=O)c2CN1C(=O)Nc1cc(F)c(F)c(F)c1 (stereo partly drawn) [Example 7, 2-[1-[(6S)-6-methyl-5-[(3,4,5-trifluorophenyl)carbamoyl]-6,7-dihydro-4H-pyrazolo[1,5-a]pyrazin-3-yl]-5-oxo-pyrrolidin-3-yl]benzoic acid]",22 nM
8,"C[C@H]1Cn2ncc(N3CC(c4cccc(C(=O)O)c4)CC3=O)c2CN1C(=O)Nc1cc(F)c(F)c(F)c1 (stereo partly drawn) [Example 8, 3-[1-[(6S)-6-methyl-5-[(3,4,5-trifluorophenyl)carbamoyl]-6,7-dihydro-4H-pyrazolo[1,5-a]pyrazin-3-yl]-5-oxo-pyrrolidin-3-yl]benzoic acid]",89 nM
9,"C[C@H]1Cn2ncc(N3CC(N4CCC[C@@H]4C(=O)O)CC3=O)c2CN1C(=O)Nc1cc(F)c(F)c(F)c1 (stereo partly drawn) [Example 9, (2R)-1-[1-[(6S)-6-methyl-5-[(3,4,5-trifluorophenyl)carbamoyl]-6,7-dihydro-4H-pyrazolo[1,5-a]pyrazin-3-yl]-5-oxo-pyrrolidin-3-yl]pyrrolidine-2-carboxylic acid]",124 nM
10,"C[C@H]1Cn2ncc(N3CC(Nc4ccccc4C(=O)O)CC3=O)c2CN1C(=O)Nc1cc(F)c(F)c(F)c1 (stereo partly drawn) [Example 12, 2-[[1-[(6S)-6-methyl-5-[(3,4,5-trifluorophenyl)carbamoyl]-6,7-dihydro-4H-pyrazolo[1,5-a]pyrazin-3-yl]-5-oxo-pyrrolidin-3-yl]amino]benzoic acid]",288 nM
11,"C[C@H]1Cn2ncc(N3CC4COCC(C3=O)N4CC(=O)O)c2CN1C(=O)Nc1cc(F)c(F)c(F)c1 (stereo partly drawn) [Example 13, 2-[7-[(6S)-6-methyl-5-[(3,4,5-trifluorophenyl)carbamoyl]-6,7-dihydro-4H-pyrazolo[1,5-a]pyrazin-3-yl]-6-oxo-3-oxa-7,9-diazabicyclo[3.3.1]nonan-9-yl]acetic acid]",99 nM
12,"C[C@H]1Cn2ncc(N3CC(c4cc(F)ccc4C(=O)O)CC3=O)c2CN1C(=O)Nc1cc(F)c(F)c(F)c1 (stereo partly drawn) [Example 14, 4-Fluoro-2-[1-[(6S)-6-methyl-5-[(3,4,5-trifluorophenyl)carbamoyl]-6,7-dihydro-4H-pyrazolo[1,5-a]pyrazin-3-yl]-5-oxo-pyrrolidin-3-yl]benzoic acid]",30 nM
13,"C[C@H]1Cn2ncc(N3CC(c4ccc(F)cc4C(=O)O)CC3=O)c2CN1C(=O)Nc1cc(F)c(F)c(F)c1 (stereo partly drawn) [Example 15, 5-Fluoro-2-[1-[(6S)-6-methyl-5-[(3,4,5-trifluorophenyl)carbamoyl]-6,7-dihydro-4H-pyrazolo[1,5-a]pyrazin-3-yl]-5-oxo-pyrrolidin-3-yl]benzoic acid]",57 nM
14,"C[C@H]1Cn2ncc(N3CC(c4ccc(C(=O)O)cc4)CC3=O)c2CN1C(=O)Nc1cc(F)c(F)c(F)c1 (stereo partly drawn) [Example 16, 4-[1-[(6S)-6-methyl-5-[(3,4,5-trifluorophenyl)carbamoyl]-6,7-dihydro-4H-pyrazolo[1,5-a]pyrazin-3-yl]-5-oxo-pyrrolidin-3-yl]benzoic acid]",228 nM
15,"C[C@H]1Cn2ncc(N3CC(c4ncccc4C(=O)O)CC3=O)c2CN1C(=O)Nc1cc(F)c(F)c(F)c1 (stereo partly drawn) [Example 18, 2-[1-[(6S)-6-methyl-5-[(3,4,5-trifluorophenyl)carbamoyl]-6,7-dihydro-4H-pyrazolo[1,5-a]pyrazin-3-yl]-5-oxo-pyrrolidin-3-yl]pyridine-3-carboxylic acid]",102 nM

# Same assay, conditions: extracellular HBV DNA by qPCR, five days after compound treatment
row,Structure (SMILES),EC50
1,"C[C@H]1Cn2ncc(N3CC(c4ccccc4C(=O)O)CC3=O)c2CN1C(=O)Nc1cc(F)c(F)c(F)c1 (single isomer, unassigned) [Example 7-1]",34 nM
2,"C[C@H]1Cn2ncc(N3CC(c4ccccc4C(=O)O)CC3=O)c2CN1C(=O)Nc1cc(F)c(F)c(F)c1 (single isomer, unassigned) [Example 7-2]",14 nM
3,"C[C@H]1Cn2ncc(N3CC(c4c(F)cccc4C(=O)O)CC3=O)c2CN1C(=O)Nc1cc(F)c(F)c(F)c1 (single isomer, unassigned) [Example 10-1]",106 nM
4,"C[C@H]1Cn2ncc(N3CC(c4c(F)cccc4C(=O)O)CC3=O)c2CN1C(=O)Nc1cc(F)c(F)c(F)c1 (single isomer, unassigned) [Example 10-2]",17 nM
5,"C[C@H]1Cn2ncc(N3CC(c4cccc(F)c4C(=O)O)CC3=O)c2CN1C(=O)Nc1cc(F)c(F)c(F)c1 (single isomer, unassigned) [Example 11-1]",312 nM
6,"C[C@H]1Cn2ncc(N3CC(c4cccc(F)c4C(=O)O)CC3=O)c2CN1C(=O)Nc1cc(F)c(F)c(F)c1 (single isomer, unassigned) [Example 11-2]",77 nM
7,"C[C@H]1[C@H](C)n2ncc(N3CC(N4CCC[C@H]4C(=O)O)CC3=O)c2CN1C(=O)Nc1cc(F)c(F)c(F)c1 (stereo partly drawn) [Example 6-2, (2S)-1-[1-[(6S,7S)-6,7-dimethyl-5-[(3,4,5-trifluorophenyl)carbamoyl]-6,7-dihydro-4H-pyrazolo[1,5-a]pyrazin-3-yl]-5-oxo-pyrrolidin-3-yl]pyrrolidine-2-carboxylic acid]",99 nM

# — US10562905B2, “Carboxy tetrahydropyrazolopyrazine compounds for the treatment of infectious diseases” (Hoffmann-La Roche Inc., priority 2016, dated 2020)
